Experimental findings from US9139578B2 (BRISTOL-MYERS SQUIBB COMPANY, priority 2012, dated 2015) are described below.

SMILES strings stand for the structures.

The target of the experiment is endothelial lipase (EL) (Homo sapiens (Human), UniProt Q9Y5X9). As to the kind of experiment: Endothelial lipase (EL) enzymatic assay with fluorescent substrate A10070 in DMPG vesicles. The class given is biochemical. Conditions: conditioned media from HT-1080 cells overexpressing endogenous EL; 20 min preincubation at 37° C. The procedure:
Endothelial lipase activity was measured using a fluorescent substrate, A10070, (Invitrogen, CA) doped into an artificial vesicle containing DMPG (Avanti Polar Lipids) as the excipient. Vesicles were prepared by combining 285 μL, of 1 mM DMPG in a 1:1 mixture of MeOH and CHCl3 with 15 μL, of 1 mM A10070 in a 1:1 mixture of MeOH and CHCl3. The mixture was dried under nitrogen and resuspended in 150 μL, of 50 mM HEPES pH 8.0 buffer containing 100 mM NaCl and 0.2 mM EDTA. The sample was allowed to sit at rt for 15 min and then was sonicated 3×4 mins on ice with a Branson Sonicator using duty cycle 1. This preparation provides vesicles with a mole fraction of 0.05 for the FRET substrate.
The enzymatic assay was measured using white, opaque 96-well half area plates. Each well contained 60 μL, of assay buffer (50 mM HEPES pH 8.0, 50 mM NaCl and 1 mM CaCl2) and 2 ul of a DMSO solution containing compound of interest. Conditioned media obtained from HT-1080 cells, which were transformed by RAGE technology (Athersys) to overexpress endogenous EL, was added and the reaction was allowed to incubate for 20 min at 37° C. with gentle agitation. The reaction was started by the addition of 20 μL, of a 1:4 dilution of vesicles. The final total reaction volume was 100 μL. The reaction rates were measured on a Gemini plate reader with an excitation wavelength of 488 nm and an emission of 530 nm. Readings were taken every 20 seconds for 10 min with agitation between each reading. The slope of the linear portion of the readout was used to calculate the rate of the reaction.

endothelial lipase (EL), sequence (Q9Y5X9 21-500): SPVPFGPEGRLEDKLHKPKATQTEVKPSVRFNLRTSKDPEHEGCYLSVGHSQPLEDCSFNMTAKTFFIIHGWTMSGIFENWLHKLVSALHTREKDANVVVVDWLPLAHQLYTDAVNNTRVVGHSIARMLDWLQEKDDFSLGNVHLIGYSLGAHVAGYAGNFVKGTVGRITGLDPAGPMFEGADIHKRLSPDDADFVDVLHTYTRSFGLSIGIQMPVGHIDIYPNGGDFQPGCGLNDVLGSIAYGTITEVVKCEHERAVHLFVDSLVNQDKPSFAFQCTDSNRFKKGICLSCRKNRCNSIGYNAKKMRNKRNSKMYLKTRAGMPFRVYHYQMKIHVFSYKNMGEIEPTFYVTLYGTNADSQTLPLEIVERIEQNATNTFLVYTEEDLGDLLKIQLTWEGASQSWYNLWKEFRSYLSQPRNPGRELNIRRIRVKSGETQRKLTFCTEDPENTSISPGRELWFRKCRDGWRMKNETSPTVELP

Turning to `O=C1NC(=O)C(Cc2nnc(C(NC(=O)c3ccc(C(F)(F)F)cc3)c3nc4ccc(-c5ccc(F)nc5)cc4s3)o2)S1` (centres unmarked) [Example 1, N-((5-((2,4-dioxothiazolidin-5-yl)methyl)-1,3,4-oxadiazol-2-yl)(6-(6-fluoropyridin-3-yl)benzo[d]thiazol-2-yl)methyl)-4-(trifluoromethyl)benzamide], the IC50 is under 10 nM. Consider `NS(=O)(=O)NCc1nnc(C(NC(=O)c2ccc(C(F)(F)F)cc2)c2nc3ccc(-c4ccc(F)nc4)cc3s2)o1` (centres unmarked) [Example 2, N-((6-(6-fluoropyridin-3-yl)benzo[d]-thiazol-2-yl)(5-((sulfamoyl-amino)-methyl)-1,3,4-oxadiazol-2-yl)methyl)-4-(trifluoro-methyl)-benzamide], for which the IC50 is under 10 nM.

In turn, `NS(=O)(=O)NCc1nnc(C(NC(=O)c2cccnc2)c2nc3ccc(-c4ccc(F)nc4)cc3s2)o1` (centres unmarked) [Example 3, N-((6-(6-fluoropyridin-3-yl)benzo[d]-thiazol-2-yl)(5-((sulfamoyl-amino)-methyl)-1,3,4-oxadiazol-2-yl)methyl)-nicotinamide] came in with an IC50 of under 10 nM. `NS(=O)(=O)NCc1nnc(C(NC(=O)NCc2ccccc2)c2nc3ccc(-c4ccc(F)nc4)cc3s2)o1` (centres unmarked) [Example 4, 1-benzyl-3-((6-(6-fluoro-3-pyridinyl)-1,3-benzothiazol-2-yl)(5-((sulfamoyl-amino)-methyl)-1,3,4-oxadiazol-2-yl)methyl)urea] showed an IC50 of under 10 nM.

With `CCC(=O)NC(c1nnc(CNS(N)(=O)=O)o1)c1nc2ccc(-c3ccc(F)nc3)cc2s1` (centres unmarked) [Example 5, N-((6-(6-fluoropyridin-3-yl)benzo[d]-thiazol-2-yl)(5-M-((sulfamoyl-amino)-methyl)-1,3,4-oxadiazol-2-yl)methyl)-propionamide], the IC50 is under 10 nM. Take `CCOC(=O)CNC(=O)NC(c1nnc(CNS(N)(=O)=O)o1)c1nc2ccc(-c3ccc(F)nc3)cc2s1` (centres unmarked) [Example 6, ethyl 2-(3-((6-(6-fluoropyridin-3-yl)benzo[d]-thiazol-2-yl)(5-((sulfamoyl-amino)-methyl)-1,3,4-oxadiazol-2-yl)methyl)-ureido)acetate]: the IC50 is under 10 nM.

Molecule `NS(=O)(=O)NCc1nnc(C(NC(=O)Nc2ccc(F)cc2)c2nc3ccc(-c4ccc(F)nc4)cc3s2)o1` (centres unmarked) [Example 7, 1-(4-fluoro-phenyl)-3-((6-(6-fluoro-3-pyridinyl)-1,3-benzothiazol-2-yl)(5-((sulfamoyl-amino)-methyl)-1,3,4-oxadiazol-2-yl)methyl)urea] showed an IC50 of under 10 nM. Regarding `Cc1noc(C)c1NC(=O)NC(c1nnc(CNS(N)(=O)=O)o1)c1nc2ccc(-c3ccc(F)nc3)cc2s1` (centres unmarked) [Example 8, 1-(3,5-dimethyl-4-isoxazolyl)-3-((6-(6-fluoro-3-pyridinyl)-1,3-benzothiazol-2-yl)(5-((sulfamoyl-amino)-methyl)1,3,4-oxadiazol-2-yl)methyl)urea], the IC50 is under 10 nM.

As for `CC(=O)NC(c1nnc(CC2SC(=O)NC2=O)o1)c1nc2ccc(-c3ccc(F)nc3)cc2s1` (centres unmarked) [Example 9, N-((5-((2,4-dioxo-thiazolidin-5-yl)methyl)-1,3,4-oxadiazol-2-yl)-(6-(6-fluoropyridin-3-yl)benzo[d]-thiazol-2-yl)-methyl)-acetamide], the half-maximal inhibitory concentration (IC50) is under 10 nM. Turning to `CC(=O)NC(c1nnc(CNS(N)(=O)=O)o1)c1nc2ccc(-c3ccc(F)nc3)cc2s1` (centres unmarked) [Example 10, N-((6-(6-fluoropyridin-3-yl)benzo[d]-thiazol-2-yl)(5-((sulfamoyl-amino)-methyl)-1,3,4-oxadiazol-2-yl)methyl)-acetamide], the half-maximal inhibitory concentration (IC50) was under 10 nM. Regarding `CC(=O)NC(c1nnc(CC2SC(=O)NC2=O)o1)c1nc2ccc(-c3ccnn3C)cc2s1` (centres unmarked) [Example 11, N-((5-((2,4-dioxo-thiazolidin-5-yl)methyl)-1,3,4-oxadiazol-2-yl)(6-(1-methyl-1H-pyrazol-5-yl)benzo[d]-thiazol-2-yl)methyl)-acetamide], the IC50 was under 10 nM. `CC(=O)NC(c1nnc(CNS(N)(=O)=O)o1)c1nc2ccc(-c3ccccc3)cc2s1` (centres unmarked) [Example 12, N-((6-phenylbenzo[d]thiazol-2-yl)(5-((sulfamoylamino)methyl)-1,3,4-oxadiazol-2-yl)methyl)acetamide] showed an IC50 of under 10 nM. Take `CC(C)C(=O)NC(c1nnc(CNS(N)(=O)=O)o1)c1nc2ccc(-c3ccccc3)cc2s1` (centres unmarked) [Example 13, N-((6-phenylbenzo[d]-thiazol-2-yl)(5-((sulfamoylamino)-methyl)-1,3,4-oxadiazol-2-yl)methyl)-isobutyramide]: the IC50 is under 10 nM. `CC(C)NC(=O)NC(c1nnc(CNS(N)(=O)=O)o1)c1nc2ccc(-c3ccccc3)cc2s1` (centres unmarked) [Example 15, 1-isopropyl-3-((6-phenyl-1,3-benzothiazol-2-yl)(5-((sulfamoylamino)-methyl)-1,3,4-oxadiazol-2-yl)methyl)urea] had an IC50 of under 10 nM.

In turn, `NS(=O)(=O)NCc1nnc(C(NC(=O)c2ccc(C(F)(F)F)cc2)c2nc3ccc(-c4ccccc4)cc3s2)o1` (centres unmarked) [Example 16, N-((6-phenylbenzo[d]-thiazol-2-yl)(5-((sulfamoylamino)-methyl)-1,3,4-oxadiazol-2-yl)methyl)-4-(trifluoromethyl)-benzamide] registered an IC50 of under 10 nM. The result for `CC(=O)NC(c1nnc(CNC(=O)OC(C)(C)C)o1)c1nc2ccc(-c3ccccc3)cc2s1` (centres unmarked) [Example 17, tert-butyl ((5-(acetamido(6-phenylbenzo[d]-thiazol-2-yl)methyl)-1,3,4-oxadiazol-2-yl)methyl)-carbamate] reads under 10 nM; that for `O=C(NC(c1nnc(CS(=O)(=O)O)o1)c1nc2ccc(-c3ccccc3)cc2s1)C1CC1` (centres unmarked) [Example 18, (5-(cyclopropane-carboxamido-(6-phenylbenzo[d]-thiazol-2-yl)methyl)-1,3,4-oxadiazol-2-yl)methanesulfonic acid], under 10 nM.

The molecule `O=C1NC(=O)C(Cc2nnc(C(NC(=O)C3CC3)c3nc4c(F)cc(-c5ccccc5)cc4s3)o2)S1` (centres unmarked) [Example 21] came in with a concentration for half-maximal inhibition (IC50) of under 10 nM. For the molecule `O=C1NC(=O)C(Cc2nnc(C(NC(=O)c3ccc(C(F)(F)F)cc3)c3nc4c(F)cc(-c5ccccc5)cc4s3)o2)S1` (centres unmarked) [Example 22], the IC50 was under 10 nM. Turning to `CC(=O)NC(c1nnc(CC2(C)NC(=O)NC2=O)o1)c1nc2ccc(-c3ccc(C(=O)N4CCOCC4)cc3)cc2s1` (centres unmarked) [Example 23, N-((5-((4-methyl-2,5-dioxoimidazolidin-4-yl)methyl)-1,3,4-oxadiazol-2-yl)(6-(4-(morpholine-4-carbonyl)phenyl)benzo[d]thiazol-2-yl)methyl)acetamide], the IC50 stood at 131 nM. With `COc1nc(-c2nnc(C(NC(C)=O)c3nc4ccc(-c5ccccc5)cc4s3)o2)c(O)c(=O)[nH]1` (centres unmarked) [Example 24, N-((5-(5-hydroxy-2-methoxy-6-oxo-1,6-dihydropyrimidin-4-yl)-1,3,4-oxadiazol-2-yl)(6-phenylbenzo[d]thiazol-2-yl)methyl)acetamide], 25 nM corresponded to half-maximal inhibition (IC50). Take `CC(=O)NC(c1nnc(C2CNC2)o1)c1nc2ccc(-c3ccccc3)cc2s1` (centres unmarked) [Example 25, N-((5-(azetidin-3-yl)-1,3,4-oxadiazol-2-yl)(6-phenylbenzo[d]thiazol-2-yl)methyl)acetamide]: the IC50 was determined as 277 nM. Compared with the last molecule, the IC50 is about 11-fold higher. The molecule `CC(=O)NC(c1nnc(C2CN(CC(C)(C)C)C2)o1)c1nc2ccc(-c3ccccc3)cc2s1` (centres unmarked) [Example 26, N-((5-(1-neopentylazetidin-3-yl)-1,3,4-oxadiazol-2-yl)(6-phenylbenzo[d]thiazol-2-yl)methyl)acetamide] yielded an IC50 of 17 nM.
